Data set [1] can be described thus: Circular dichroism spectroscopy of polypeptides in phosphate buffered saline. It is filed as physicochemical. Particulars: 1 mg/ml. The method, then: The conformational properties of the polypeptides were investigated to elucidate any secondary structure that might be necessary for polypeptide immunoreaction with human anti-EBNA antibodies. The polypeptides were dissolved at a concentration of 1 mg/ml in phosphate-buffered saline (PBS). Spectra were taken using 1 ml samples in a Cary 61 spectropolarimeter (Cary Instruments, Applied Physics Corp., Monrovia, Calif.) interfaced and automated with a Digital Equipment Corporation 11/02 computer (Digital Equipment Corporation, Maynard, Mass.).

Another data set has as its system anti-EBNA antibodies. Description: ELISA with polypeptide as solid phase antigen, detecting anti-polypeptide antibodies in sera. It is filed as binding, human. Particulars: for Reaction of VCA- sera with polypeptide: panel of 19 VCA- sera; for Reaction of sera of clinically normal VCA+ individuals with polypeptide: two serum dilutions; for Average titer of Progressive Systemic Schlerosis (PSS) patients to polypeptide compared with normals: high and low serum dilutions; for Number of 91 anti-EBNA positive (ACIF) sera positive against polypeptide: sera at 1:20 dilution. On the procedure:
A solution containing a substrate for the enzyme label such as hydrogen peroxide for peroxidase and a color-forming dye precursor such as o-phenylenediamine, or p-nitrophenyl phosphate for alkaline phosphatase is thereafter admixed with the solid phase.
Anti-peptide antibody binding and inhibition studies were carried out by an enzyme-linked immunosorbent assay (ELISA) as described below.
Briefly, microtiter wells (Costar, #3590, Cambridge, Mass.) were coated with individual polypeptides as antigens by adding 100 microliters (ul) of BBS [10 millimoler (mM) sodium borate (pH 8.3), 150 mM NaCl] containing polypeptide at a concentration of 10 micrograms per milliliter (ug/ml). Contact between the wells and antigen-containing solution was maintained for a predetermined time, typically 15 minutes, and at 20 degrees C., to form an antigen-coated solid phase. The solid and liquid phases were separated and the wells were washed three times with BBS.
Non-specific binding sites were blocked by admixing 200 microliters of 1% bovine serum albumin (BSA) in each well to form another solid-liquid phase admixture, and maintaining that solid-liquid phase admixture for 30 minutes, at 20 degrees C. The phases were separated and excess, unbound BSA was removed by washinq three times with BBS.
[…] Contact between the diluted sera and the antigen-coated solid phase was maintained for a predetermined time such as 1 hour, and at 20 degrees C., for an immunoreactant to form. The solid and liquid phases were separated, and the solid phase; i.e., antigen-coated, immunoreactant-containing wells, was then washed three times with BBS.
The antibodies in human sera that immunoreacted with an adsored polypeptide were detected using an indicating means comprising alkaline phosphatase-conjugated goat anti-human Ig antibody (Tago, Burlington, CA). The antibodies in rabbit sera that immunoreacted with an adsorbed polypeptide were detected using an indicating means comprising alkaline phosphatase-conjugated goat anti-rabbit Ig antibody (Kirkegard & Perry Laboratories, Inc., Gaithersburg, Md.). In either instance, 100 microliters of the indicating antibody diluted 1:300 in BBS were added per well to form a further solid-liquid phase composition. This solidliquid phase composition was maintained for a predetermined time, one hour, for the formation of a reaction product between the human antibodies bound to the solid phase and the indicating means, and at 20 degrees C.
(In general: An ELISA detects its analyte on a solid surface through an enzyme-linked reagent.)

Data on six molecules can be found in patent USRE33897E, “Synthetic polypeptides and antibodies related to Epstein-Barr virus nuclear antigen” (Scripps Clinic and Research Foundation, priority 1989, dated 1992).

Residues, ends and D or L forms follow the SMILES beside them.

Turning to `CC[C@H](C)[C@H](N)C(=O)N[C@@H](CCSC)C(=O)N[C@@H](CO)C(=O)N[C@@H](CC(=O)O)C(=O)N[C@@H](CCC(=O)O)C(=O)NCC(=O)N1CCC[C@H]1C(=O)NCC(=O)N[C@H](C(=O)NCC(=O)N[C@@H](CC(N)=O)C(=O)NCC(=O)N[C@@H](CC(C)C)C(=O)NCC(=O)N[C@@H](CCC(=O)O)C(=O)O)[C@@H](C)O` [Polypeptide F12, H--Ile--Met--Ser--Asp--Glu--Gly--Pro--Gly--Thr--Gly--Asn--Gly--Leu--Gly--Glu--OH] (H-IMSDEGPGTGNGLGE-OH), the “Conformation indicated by circular dichroism spectrum” value (“Conformation indicated” for short) in data set [1] is “partial assumption of such conformation”. In addition, in the data set on anti-EBNA antibodies, the “Reaction of VCA- sera with polypeptide” value is recorded as “None of the VCA- sera were found to react positively” and the “Reaction of sera of clinically normal VCA+ individuals with polypeptide” value (“Reaction of sera … with polypeptide” for short) is given as “all of the VCA+ indiviuals were positive”.

For the molecule `C[C@H](NC(=O)CNC(=O)[C@@H]1CCCN1)C(=O)N1CCC[C@H]1C(=O)NCC(=O)NCC(=O)N[C@@H](CO)C(=O)NCC(=O)N[C@@H](CO)C(=O)NCC(=O)N1CCC[C@H]1C(=O)O` [Polypeptide F13, H--Pro--Gly--Ala--Pro--Gly--Gly--Ser--Gly--Ser--Gly--Pro--OH] (H-PGAPGGSGSGP-OH), the “Conformation indicated” value in data set [1] is given as “random conformation”. Besides, in the data set on anti-EBNA antibodies, the “Reaction of VCA- sera with polypeptide” value is reported as “None of the VCA- sera were found to react positively” and the “Reaction of sera … with polypeptide” value is “all of the VCA+ indiviuals were positive”.

For `C[C@H](NC(=O)CNC(=O)CNC(=O)CNC(=O)[C@H](C)NC(=O)CNC(=O)[C@H](C)NC(=O)CNC(=O)CNC(=O)[C@H](C)NC(=O)CNC(=O)CNC(=O)[C@H](C)NC(=O)CNC(=O)CN)C(=O)NCC(=O)O` [Polypeptide F14, H--Gly--Gly--Ala--Gly--Gly--Ala--Gly--Gly--Ala--Gly--Ala--Gly--Gly--Gly--Ala--Gly--OH] (H-GGAGGAGGAGAGGGAG-OH), the “Conformation indicated” value in data set [1] is given as “very similar spectra”. In the data set on anti-EBNA antibodies, the “Average titer of Progressive Systemic Schlerosis (PSS) patients to polypeptide compared with normals” value (“Average titer … compared with normals” for short) is on record as “relatively higher average titer”, the “Reaction of VCA- sera with polypeptide” value was “None of the VCA- sera were found to react positively”, the “Number of 91 anti-EBNA positive (ACIF) sera positive against polypeptide” value (“Number of 91 anti-EBNA positive” below) came out at 91 and the “Reaction of sera … with polypeptide” value was “all of the VCA+ indiviuals were positive”.

For the molecule `C[C@H](NC(=O)CN)C(=O)NCC(=O)NCC(=O)N[C@@H](C)C(=O)NCC(=O)N[C@@H](C)C(=O)NCC(=O)NCC(=O)NCC(=O)N[C@@H](C)C(=O)NCC(=O)NCC(=O)N[C@@H](C)C(=O)NCC(=O)NCC(=O)O` [Polypeptide F15, H--Gly--Ala--Gly--Gly--Ala--Gly--Ala--Gly--Gly--Gly--Ala--Gly--Gly--Ala--Gly--Gly--OH] (H-GAGGAGAGGGAGGAGG-OH), the “Conformation indicated” value in data set [1] is given as “very similar spectra”. Moreover, in the data set on anti-EBNA antibodies, the “Average titer … compared with normals” value is given as “relatively higher average titer”, the “Reaction of VCA- sera with polypeptide” value is given as “None of the VCA- sera were found to react positively”, the “Number of 91 anti-EBNA positive” value is 91 and the “Reaction of sera … with polypeptide” value was “all of the VCA+ indiviuals were positive”.

`C[C@H](NC(=O)CNC(=O)CNC(=O)[C@H](C)NC(=O)CNC(=O)[C@H](C)NC(=O)CNC(=O)CNC(=O)[C@H](C)NC(=O)CNC(=O)[C@H](C)NC(=O)CNC(=O)CNC(=O)[C@H](C)NC(=O)CNC(=O)[C@H](C)NC(=O)CNC(=O)CN)C(=O)NCC(=O)N[C@@H](C)C(=O)NCC(=O)O` [Polypeptide F16, H--Gly--Gly--Ala--Gly--Ala--Gly--Gly--Ala--Gly--Ala--Gly--Gly--Ala--Gly--Ala--Gly--Gly--Ala--Gly--Ala--Gly--OH] (H-GGAGAGGAGAGGAGAGGAGAG-OH): in the data set on anti-EBNA antibodies, the “Average titer … compared with normals” value was “relatively higher average titer”, the “Reaction of VCA- sera with polypeptide” value is “None of the VCA- sera were found to react positively”, the “Number of 91 anti-EBNA positive” value was 91 and the “Reaction of sera … with polypeptide” value is listed as “all of the VCA+ indiviuals were positive”.

On to `C[C@H](NC(=O)CNC(=O)CNC(=O)[C@H](C)NC(=O)CNC(=O)[C@H](C)NC(=O)CNC(=O)[C@H](C)NC(=O)CNC(=O)[C@@H](NC(=O)CNC(=O)CNC(=O)[C@H](Cc1c[nH]cn1)NC(=O)[C@@H](NC(=O)CNC(=O)[C@@H](N)CCCCN)[C@@H](C)O)[C@@H](C)O)C(=O)NCC(=O)N[C@@H](C)C(=O)NCC(=O)O` [Polypeptide P27, H--Lys--Gly--Thr--His--Gly--Gly--Thr--Gly--Ala--Gly--Ala--Gly--Ala--Gly--Gly--Ala--Gly--Ala--Gly--OH] (H-KGTHGGTGAGAGAGGAGAG-OH), for which the “Conformation indicated” value in data set [1] is “very similar spectra”. In the data set with anti-EBNA antibodies (VCA- Normals (n = 27), dilution 1:20), the “OD405 × 10^3 obtained with patient antibodies to polypeptide, average ± one standard deviation” value turned out to be 67 ± 23 OD405 × 10^3. Moreover, the “Average titer … compared with normals” value with anti-EBNA antibodies is given as “relatively higher average titer”. Further, the “Reaction of VCA- sera with polypeptide” value in the data set on anti-EBNA antibodies was “None of the VCA- sera were found to react positively”. In the data set on anti-EBNA antibodies, the “Number of 91 anti-EBNA positive” value came to 91. Also, the “Antibodies binding to polypeptide before and after EBV-induced infectious mononucleosis” value in the data set with anti-EBNA antibodies (sera of two subjects) is reported as “absent before infection, but appeared afterward”. Further, the “OD405 × 10^3 obtained with patient antibodies to polypeptide” value in the data set on anti-EBNA antibodies (serum MV post-mononucleosis, dilution 1:20) is listed as 107 OD405 × 10^3; in the data set on anti-EBNA antibodies (serum MV pre-mononucleosis, dilution 1:20), 15 OD405 × 10^3; in the data set with anti-EBNA antibodies (serum SB post-mononucleosis, dilution 1:20) it was 33 OD405 × 10^3; in the data set on anti-EBNA antibodies (serum SB pre-mononucleosis, dilution 1:20) it was 11 OD405 × 10^3; with anti-EBNA antibodies (serum VCA + Normal 1, dilution 1:20), 155 OD405 × 10^3; in the data set on anti-EBNA antibodies (serum VCA + Normal 2, dilution 1:20), 516 OD405 × 10^3. For the same molecule, the “Reaction of sera … with polypeptide” value in the data set on anti-EBNA antibodies is given as “all of the VCA+ indiviuals were positive”.
